Assay results taken from PubChem BioAssay AID2060623 (Molecular Pharmacology Branch, DTP, NCI, 2025).

Tested on: 227483-062-R1-J1-PDC complex spheroids with HUVEC/MSC, viability
Test: Anticancer human tumor 227483-062-R1-J1-PDC patient-derived pancreatic carcinoma cell line growth inhibition [CLK]
Settings: for IC50: curve of first compound; for viability, T/C: stronger effect = lower value
In short: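 Multi-cell-type spheroids combined patient-derived tumor cells with HUVEC endothelial cells and human mesenchymal stem cells. Paired agents were dosed in half-log steps down from about clinical Cmax, or from 10 microM where Cmax was unknown.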

[1] = second compound 0.0316 µM, first compound 0.0316 µM
[2] = second compound 0.0316 µM, first compound 0.1 µM
[3] = second compound 0.0316 µM, first compound 0.316 µM
[4] = second compound 0.0316 µM, first compound 1 µM
[5] = second compound 0.0316 µM, first compound 3.16 µM
[6] = second compound 0.0316 µM, first compound 10 µM
[7] = second compound 0.1 µM, first compound 0.0316 µM
[8] = second compound 0.1 µM, first compound 0.1 µM
[9] = second compound 0.1 µM, first compound 0.316 µM
[10] = second compound 0.1 µM, first compound 1 µM
[11] = second compound 0.1 µM, first compound 3.16 µM
[12] = second compound 0.1 µM, first compound 10 µM
[13] = second compound 0.316 µM, first compound 0.0316 µM
[14] = second compound 0.316 µM, first compound 0.1 µM
[15] = second compound 0.316 µM, first compound 0.316 µM
[16] = second compound 0.316 µM, first compound 1 µM
[17] = second compound 0.316 µM, first compound 3.16 µM
[18] = second compound 0.316 µM, first compound 10 µM
[19] = second compound 1 µM, first compound 0.0316 µM
[20] = second compound 1 µM, first compound 0.1 µM
[21] = second compound 1 µM, first compound 0.316 µM
[22] = second compound 1 µM, first compound 1 µM
[23] = second compound 1 µM, first compound 3.16 µM
[24] = second compound 1 µM, first compound 10 µM
[25] = second compound 3.16 µM, first compound 0.0316 µM
[26] = second compound 3.16 µM, first compound 0.1 µM
[27] = second compound 3.16 µM, first compound 0.316 µM
[28] = second compound 3.16 µM, first compound 1 µM
[29] = second compound 3.16 µM, first compound 3.16 µM
[30] = second compound 3.16 µM, first compound 10 µM
[31] = second compound 10 µM, first compound 0.0316 µM
[32] = second compound 10 µM, first compound 0.1 µM
[33] = second compound 10 µM, first compound 0.316 µM
[34] = second compound 10 µM, first compound 1 µM
[35] = second compound 10 µM, first compound 3.16 µM
[36] = second compound 10 µM, first compound 10 µM
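Also: spheroids exposed to compounds for seven days before readout.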
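For viability, T/C in this document: percent of DMSO vehicle control luminescence as 100% viability.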

With C#Cc1c(F)ccc2cc(O)cc(-c3ncc4c(N5CC6CCC(C5)N6)nc(OCC56CCCN5CC(F)C6)nc4c3F)c12 (centres undefined) + CN1CCN(c2cc(C(=O)Nc3cc4cc(-c5cnn(C)c5)ccc4cn3)ccn2)CC1 the IC50 (second compound 0.0316 µM) was > 10000 nM, the IC50 (second compound 0.1 µM) was > 10000 nM and the IC50 (second compound 0.316 µM) was < 31.6 nM. The IC50 (second compound 1 µM) was < 31.6 nM, the IC50 (second compound 3.16 µM) was < 31.6 nM and the IC50 (second compound 10 µM) was < 31.6 nM. The viability, T/C [1] was 95.4%, the viability, T/C [2] was 97% and the viability, T/C [3] was 128%. It also gave a viability, T/C [4] of 114%, a viability, T/C [5] of 108% and a viability, T/C [6] of 69.7%. It also gave a viability, T/C [7] of 66.1%, a viability, T/C [8] of 70.6% and a viability, T/C [9] of 67.7%. It also gave a viability, T/C [10] of 81.6%, a viability, T/C [11] of 68.8% and a viability, T/C [12] of 52.3%. It also gave a viability, T/C [13] of 5.84%, a viability, T/C [14] of 7.37% and a viability, T/C [15] of 7.6%. For the same compound, the viability, T/C [16] was 7.53%, the viability, T/C [17] was 10% and the viability, T/C [18] was 6.58%. For the same compound, the viability, T/C [19] was 3.51%, the viability, T/C [20] was 2.53% and the viability, T/C [21] was 1.89%. The viability, T/C [22] was 3.48%, the viability, T/C [23] was 1.46% and the viability, T/C [24] was 1.87%. It also gave a viability, T/C [25] of 4.16%, a viability, T/C [26] of 4.44% and a viability, T/C [27] of 3.89%. It also gave a viability, T/C [28] of 3.43%, a viability, T/C [29] of 3.41% and a viability, T/C [30] of 2.74%. The viability, T/C [31] was 4.25%, the viability, T/C [32] was 2.63% and the viability, T/C [33] was 2.09%. For the same compound, the viability, T/C [34] was 4%, the viability, T/C [35] was 1.52% and the viability, T/C [36] was 1.15%.

CC(CO)NC(=O)c1cc(-c2ccc(Cl)cc2)nn(-c2cnn(C)c2)c1=O (centres undefined) + CN1CCN(c2cc(C(=O)Nc3cc4cc(-c5cnn(C)c5)ccc4cn3)ccn2)CC1 was tested, and the IC50 (second compound 0.0316 µM) was > 10000 nM, the IC50 (second compound 0.1 µM) was > 10000 nM and the IC50 (second compound 0.316 µM) was < 31.6 nM. The IC50 (second compound 1 µM) was < 31.6 nM, the IC50 (second compound 3.16 µM) was < 31.6 nM and the IC50 (second compound 10 µM) was < 31.6 nM. It also gave a viability, T/C [1] of 88.9%, a viability, T/C [2] of 89.1% and a viability, T/C [3] of 98.5%. The viability, T/C [4] was 94%, the viability, T/C [5] was 94.7% and the viability, T/C [6] was 82.4%. For the same compound, the viability, T/C [7] was 65.2%, the viability, T/C [8] was 61.3% and the viability, T/C [9] was 66.4%. For the same compound, the viability, T/C [10] was 69%, the viability, T/C [11] was 63.2% and the viability, T/C [12] was 65.4%. It also gave a viability, T/C [13] of 6.17%, a viability, T/C [14] of 7.14% and a viability, T/C [15] of 9.66%. For the same compound, the viability, T/C [16] was 6.91%, the viability, T/C [17] was 8.13% and the viability, T/C [18] was 5.79%. The viability, T/C [19] was 2.97%, the viability, T/C [20] was 2.61% and the viability, T/C [21] was 3.05%. The viability, T/C [22] was 3.03%, the viability, T/C [23] was 1.78% and the viability, T/C [24] was 1.92%. The viability, T/C [25] was 4.36%, the viability, T/C [26] was 4.28% and the viability, T/C [27] was 3.59%. The viability, T/C [28] was 2.83%, the viability, T/C [29] was 3.7% and the viability, T/C [30] was 3.41%. For the same compound, the viability, T/C [31] was 4.97%, the viability, T/C [32] was 2.72% and the viability, T/C [33] was 2.16%. The viability, T/C [34] was 2.15%, the viability, T/C [35] was 2.52% and the viability, T/C [36] was 3%.
